The target in one test is T1, human recombinant HDAC6 (Homo sapiens, UniProt Q9UBN7).
T1 construct: purchased Calbiochem Inc. 382180
T1 sequence (Q9UBN7 1-1215): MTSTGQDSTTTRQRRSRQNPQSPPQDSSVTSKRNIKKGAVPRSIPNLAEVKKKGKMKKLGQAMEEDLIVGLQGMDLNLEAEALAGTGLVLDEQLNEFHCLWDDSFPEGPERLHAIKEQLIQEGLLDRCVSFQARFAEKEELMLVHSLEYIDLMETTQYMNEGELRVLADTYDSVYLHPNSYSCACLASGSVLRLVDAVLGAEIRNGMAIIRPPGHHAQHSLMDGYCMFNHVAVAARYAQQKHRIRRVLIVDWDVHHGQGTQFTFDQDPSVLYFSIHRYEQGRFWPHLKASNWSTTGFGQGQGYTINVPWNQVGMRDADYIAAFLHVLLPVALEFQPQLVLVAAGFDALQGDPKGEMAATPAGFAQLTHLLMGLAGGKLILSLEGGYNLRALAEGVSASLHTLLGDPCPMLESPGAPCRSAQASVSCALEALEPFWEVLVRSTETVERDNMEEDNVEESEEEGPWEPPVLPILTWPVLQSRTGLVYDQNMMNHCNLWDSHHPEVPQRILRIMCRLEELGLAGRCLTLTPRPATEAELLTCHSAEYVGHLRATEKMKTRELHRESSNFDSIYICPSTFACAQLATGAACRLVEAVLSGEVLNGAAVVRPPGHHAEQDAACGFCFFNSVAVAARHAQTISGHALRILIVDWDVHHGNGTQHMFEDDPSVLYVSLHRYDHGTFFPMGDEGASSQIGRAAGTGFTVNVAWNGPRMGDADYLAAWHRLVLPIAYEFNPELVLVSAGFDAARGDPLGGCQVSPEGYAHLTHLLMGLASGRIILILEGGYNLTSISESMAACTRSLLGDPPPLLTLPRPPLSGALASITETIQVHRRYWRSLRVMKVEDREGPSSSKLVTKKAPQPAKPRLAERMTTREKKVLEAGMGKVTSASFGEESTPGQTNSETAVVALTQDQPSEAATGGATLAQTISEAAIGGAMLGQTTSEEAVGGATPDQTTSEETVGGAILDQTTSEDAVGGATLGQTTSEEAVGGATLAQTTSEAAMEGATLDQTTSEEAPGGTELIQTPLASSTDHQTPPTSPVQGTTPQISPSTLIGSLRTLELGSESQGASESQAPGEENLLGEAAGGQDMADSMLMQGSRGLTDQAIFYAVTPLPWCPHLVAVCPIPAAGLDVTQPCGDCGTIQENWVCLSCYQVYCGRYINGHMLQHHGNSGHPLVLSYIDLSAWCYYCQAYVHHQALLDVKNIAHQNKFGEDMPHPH
As to the kind of experiment: HDAC6 enzyme activity inhibition (HDAC Fluorimetric Drug Discovery Kit). Type of test: biochemical. The note with it: HDAC1 versus HDAC6. On the procedure:
(§1) An experiment was conducted to identify the selectivity of the 1,3,4-oxadiazole triazole compound of the present invention to HDAC6 through an experiment on HDAC1 and HDAC6 enzyme activity inhibition.
(§2) The HDAC enzyme activity was measured with HDAC Fluorimetric Drug Discovery Kit (BML-AK511, 516) of Enzo Life Science, Inc. For the test on the HDAC1 enzyme activity, human recombinant HDAC1 (BML-SE456) was used as an enzyme source and Fluor de Lys®-“SIRT1 (BNL-KI177)” was used as a substrate. A 5-fold dilution of the compound was divided into a 96-well plate, after which 0.3 μg of the enzyme and 10 μM of the substrate were inserted into each well and subjected to reaction at 30° C. for 60 minutes, such that Fluor de Lys® Developer II (BML-KI176) was inserted thereinto and subjected to reaction for 30 minutes and finished. After that, a fluorescence value (Ex 360, Em 460) was measured with a multi-plate reader (Flexstation 3, Molecular Device). An experiment on HDAC6 enzyme was conducted in accordance with the same protocol as in the HDAC1 enzyme activity test method by using human recombinant HDAC6 (382180) of Calbiochem Inc. For final result values, each IC50 value was calculated with GraphPad Prism 4.0 program.

A further test concerns the target T2, human recombinant HDAC1 (Homo sapiens, UniProt Q13547).
T2 construct: purchased Enzo Life Science, Inc. BML-SE456
Put plainly: HDAC1 enzyme activity inhibition (HDAC Fluorimetric Drug Discovery Kit). The note with it: human recombinant HDAC1, Fluor de Lys substrate 10 μM, 30° C. 60 minutes. Type of test: biochemical. The method, then:
as §1, §2

Some results are limits rather than exact numbers.

T2 sequence (Q13547 whole entry): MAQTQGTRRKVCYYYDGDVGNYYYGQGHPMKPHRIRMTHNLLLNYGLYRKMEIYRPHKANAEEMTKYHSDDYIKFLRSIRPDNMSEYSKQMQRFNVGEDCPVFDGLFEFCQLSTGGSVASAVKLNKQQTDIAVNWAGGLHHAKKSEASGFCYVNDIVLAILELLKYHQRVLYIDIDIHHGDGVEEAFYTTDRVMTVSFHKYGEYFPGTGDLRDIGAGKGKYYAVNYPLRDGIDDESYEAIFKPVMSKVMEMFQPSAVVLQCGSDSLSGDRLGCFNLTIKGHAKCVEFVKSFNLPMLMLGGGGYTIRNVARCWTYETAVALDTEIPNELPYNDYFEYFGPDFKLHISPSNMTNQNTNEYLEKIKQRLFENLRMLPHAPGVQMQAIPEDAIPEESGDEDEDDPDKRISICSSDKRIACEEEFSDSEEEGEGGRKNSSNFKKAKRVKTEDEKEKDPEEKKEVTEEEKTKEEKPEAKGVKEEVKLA

As a reminder, the IC50 is the midpoint of a concentration-inhibition curve. On to `FC(F)c1nnc(-c2ccc(Cn3cc(-c4ccc(CN5CCCC5)cn4)nn3)nc2)o1` [Compound 3, 2-(difluoromethyl)-5-(6-((4-(5-(pyrrolidin-1-ylmethyl)pyridin-2-yl)-1H-1,2,3-triazol-1-yl)methyl)pyridin-3-yl)-1,3,4-oxadiazole], for which the “HDAC6 selectivity (fold)” value at human recombinant HDAC6 stood at 1712 fold. Also, on human recombinant HDAC1, the half-inhibitory concentration (IC50) is over 50 µM.

For the compound `Fc1ccc(CN2CCCCC2)cc1-c1cn(Cc2ccc(-c3nnc(C(F)F)o3)cn2)nn1` [Compound 18, 2-(difluoromethyl)-5-(6-((4-(2-fluoro-5-(piperidin-1-ylmethyl)phenyl)-1H-1,2,3-triazol-1-yl)methyl)pyridin-3-yl)-1,3,4-oxadiazole], the “HDAC6 selectivity (fold)” value at human recombinant HDAC6 amounted to 1845 fold. In addition, the 50% inhibitory concentration (IC50) at human recombinant HDAC1 was over 50 µM.

As for `Fc1c(CN2CCCCC2)cccc1-c1cn(Cc2ccc(-c3nnc(C(F)F)o3)cn2)nn1` [Compound 28, 2-(difluoromethyl)-5-(6-((4-(2-fluoro-3-(piperidin-1-ylmethyl)phenyl)-1H-1,2,3-triazol-1-yl)methyl)pyridin-3-yl)-1,3,4-oxadiazole], the “HDAC6 selectivity (fold)” value on human recombinant HDAC6 was found to be 1440 fold. In addition, the IC50 at human recombinant HDAC1 is over 50 µM.

As to `FC(F)c1nnc(-c2ccc(Cn3cc(-c4ccc(CN5CC[C@H](F)C5)s4)nn3)nc2)o1` [Compound 7, (S)-2-(difluoromethyl)-5-(6-((4-(5-((3-fluoropyrrolidin-1-yl)methyl)thiophen-2-yl)-1H-1,2,3-triazol-1-yl)methyl)pyridin-3-yl)-1,3,4-oxadiazole], the “HDAC6 selectivity (fold)” value on human recombinant HDAC6 is on record as 1253 fold. Also, at human recombinant HDAC1, the IC50 is over 50 µM.

As to `CN(C)Cc1cc(-c2cn(Cc3ccc(-c4nnc(C(F)F)o4)cn3)nn2)cs1` [Compound 11, 1-(4-(1-((5-(5-(difluoromethyl)-1,3,4-oxadiazol-2-yl)pyridin-2-yl)methyl)-1H-1,2,3-triazol-4-yl)thiophen-2-yl)-N,N-dimethylmethanamine], on human recombinant HDAC6, the “HDAC6 selectivity (fold)” value is 1577 fold. Further, on human recombinant HDAC1, the IC50 is over 50 µM.

In the case of `FC(F)c1nnc(-c2ccc(Cn3cc(-c4ccc(CN5CC[C@@H](F)C5)s4)nn3)nc2)o1` [Compound 8, (R)-2-(difluoromethyl)-5-(6-((4-(5-((3-fluoropyrrolidin-1-yl)methyl)thiophen-2-yl)-1H-1,2,3-triazol-1-yl)methyl)pyridin-3-yl)-1,3,4-oxadiazole], at human recombinant HDAC6, the “HDAC6 selectivity (fold)” value is recorded as 1048 fold. On human recombinant HDAC1, the IC50 was over 50 µM.

In the case of `CC1CCN(Cc2cccc(-c3cn(Cc4ccc(-c5nnc(C(F)F)o5)cn4)nn3)c2Cl)CC1` [Compound 37, 2-(6-((4-(2-chloro-3-((4-methylpiperidin-1-yl)methyl)phenyl)-1H-1,2,3-triazol-1-yl)methyl)pyridin-3-yl)-5-(difluoromethyl)-1,3,4-oxadiazole], the “HDAC6 selectivity (fold)” value at human recombinant HDAC6 turned out to be 1160 fold. Further, the IC50 at human recombinant HDAC1 was over 50 µM.

As to `Fc1cc(CN2CCC2)cc(-c2cn(Cc3ccc(-c4nnc(C(F)F)o4)cn3)nn2)c1` [Compound 38, 2-(6-((4-(3-(azetidin-1-ylmethyl)-5-fluorophenyl)-1H-1,2,3-triazol-1-yl)methyl)pyridin-3-yl)-5-(difluoromethyl)-1,3,4-oxadiazole], the “HDAC6 selectivity (fold)” value at human recombinant HDAC6 worked out at 2777 fold. On human recombinant HDAC1, the 50% inhibitory concentration (IC50) was over 50 µM.

Regarding `FC(F)c1nnc(-c2ccc(Cn3cc(-c4csc(CN5CC[C@H](F)C5)c4)nn3)nc2)o1` [Compound 13, (S)-2-(difluoromethyl)-5-(6-((4-(5-((3-fluoropyrrolidin-1-yl)methyl)thiophen-3-yl)-1H-1,2,3-triazol-1-yl)methyl)pyridin-3-yl)-1,3,4-oxadiazole], on human recombinant HDAC6, the “HDAC6 selectivity (fold)” value amounted to 1893 fold. Also, on human recombinant HDAC1, the IC50 was over 50 µM.

As for `CC1(C)CCN(Cc2ccc(-c3cn(Cc4ccc(-c5nnc(C(F)F)o5)cn4)nn3)nc2)CC1` [Compound 17, 2-(difluoromethyl)-5-(6-((4-(5-((4,4-dimethylpiperidin-1-yl)methyl)pyridin-2-yl)-1H-1,2,3-triazol-1-yl)methyl)pyridin-3-yl)-1,3,4-oxadiazole], the “HDAC6 selectivity (fold)” value on human recombinant HDAC6 is 1466 fold. On human recombinant HDAC1, the IC50 is over 50 µM.

In the case of `CC1CCN(Cc2ccc(-c3cn(Cc4ccc(-c5nnc(C(F)F)o5)cn4)nn3)nc2)CC1` [Compound 4, 2-(difluoromethyl)-5-(6-((4-(5-((4-methylpiperidin-1-yl)methyl)pyridin-2-yl)-1H-1,2,3-triazol-1-yl)methyl)pyridin-3-yl)-1,3,4-oxadiazole], on human recombinant HDAC6, the “HDAC6 selectivity (fold)” value is reported as 1428 fold. In addition, the IC50 at human recombinant HDAC1 is over 50 µM.

As to `CC1(C)CCN(Cc2ccc(-c3cn(Cc4ccc(-c5nnc(C(F)F)o5)cn4)nn3)cn2)CC1` [Compound 6, 2-(difluoromethyl)-5-(6-((4-(6-((4,4-dimethylpiperidin-1-yl)methyl)pyridin-3-yl)-1H-1,2,3-triazol-1-yl)methyl)pyridin-3-yl)-1,3,4-oxadiazole], the “HDAC6 selectivity (fold)” value on human recombinant HDAC6 is reported as 1730 fold. Moreover, the IC50 at human recombinant HDAC1 was over 50 µM.

With `FC(F)c1nnc(-c2ccc(Cn3cc(-c4cccc(CN5CCC5)c4Cl)nn3)nc2)o1` [Compound 35, 2-(6-((4-(3-(azetidin-1-ylmethyl)-2-chlorophenyl)-1H-1,2,3-triazol-1-yl)methyl)pyridin-3-yl)-5-(difluoromethyl)-1,3,4-oxadiazole], the “HDAC6 selectivity (fold)” value on human recombinant HDAC6 was 1146 fold. For the same compound, on human recombinant HDAC1, the half-maximal inhibitory concentration (IC50) is over 50 µM.

`FC(F)c1nnc(-c2ccc(Cn3cc(-c4csc(CN5CCC(F)(F)CC5)c4)nn3)nc2)o1` [Compound 16, 2-(difluoromethyl)-5-(6-((4-(5-((4,4-difluoropiperidin-1-yl)methyl)thiophen-3-yl)-1H-1,2,3-triazol-1-yl)methyl)pyridin-3-yl)-1,3,4-oxadiazole]: the “HDAC6 selectivity (fold)” value on human recombinant HDAC6 was 1237 fold. The 50% inhibitory concentration (IC50) on human recombinant HDAC1 was over 50 µM.

For `FC(F)c1nnc(-c2ccc(Cn3cc(-c4cccc(CN5CCCC5)c4Cl)nn3)nc2)o1` [Compound 36, 2-(6-((4-(2-chloro-3-(pyrrolidin-1-ylmethyl)phenyl)-1H-1,2,3-triazol-1-yl)methyl)pyridin-3-yl)-5-(difluoromethyl)-1,3,4-oxadiazole], the “HDAC6 selectivity (fold)” value on human recombinant HDAC6 is given as 1792 fold. Besides, the half-inhibitory concentration (IC50) on human recombinant HDAC1 was over 50 µM.

`FC(F)c1nnc(-c2ccc(Cn3cc(-c4ccc(CN5CCC5)c(Cl)c4)nn3)nc2)o1` [Compound 42, 2-(6-((4-(4-(azetidin-1-ylmethyl)-3-chlorophenyl)-1H-1,2,3-triazol-1-yl)methyl)pyridin-3-yl)-5-(difluoromethyl)-1,3,4-oxadiazole]: the “HDAC6 selectivity (fold)” value at human recombinant HDAC6 amounted to 2183 fold. Besides, the half-inhibitory concentration (IC50) on human recombinant HDAC1 is over 50 µM.

As for `FC(F)c1nnc(-c2ccc(Cn3cc(-c4cc(Cl)cc(CN5CCCC5)c4)nn3)nc2)o1` [Compound 32, 2-(6-((4-(3-chloro-5-(pyrrolidin-1-ylmethyl)phenyl)-1H-1,2,3-triazol-1-yl)methyl)pyridin-3-yl)-5-(difluoromethyl)-1,3,4-oxadiazole], the “HDAC6 selectivity (fold)” value on human recombinant HDAC6 is listed as 1945 fold. For the same compound, the IC50 on human recombinant HDAC1 was over 50 µM.

With `CC1CCN(Cc2cc(-c3cn(Cc4ccc(-c5nnc(C(F)F)o5)cn4)nn3)ccc2F)CC1` [Compound 25, 2-(difluoromethyl)-5-(6-((4-(4-fluoro-3-((4-methylpiperidin-1-yl)methyl)phenyl)-1H-1,2,3-triazol-1-yl)methyl)pyridin-3-yl)-1,3,4-oxadiazole], the “HDAC6 selectivity (fold)” value at human recombinant HDAC6 is reported as 2890 fold. The IC50 on human recombinant HDAC1 is over 50 µM.

For the origin of these results see US20250214983A1, “1,3,4-OXADIAZOLE TRIAZOLE COMPOUNDS AS HISTONE DEACETYLASE 6 INHIBITOR, AND PHARMACEUTICAL COMPOSITION COMPRISING THE SAME” (Chong Kun Dang Pharmaceutical Corp., priority 2022, published 2025).
